Results reported in patent US12077503B2, “Substituted cyclic amides and their use as herbicides” (FMC CORPORATION, priority 2015, dated 2024).

Columns and labels:
Type in all cases: in vivo
Kochia (Kochia scoparia) [1] = test: Test A preemergence; conditions: Bassia scoparia, pre-emergence, 240 h, Preemergence
In short: (§1)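 Visual injury, scored on a 0–100 scale relative to untreated controls, was recorded about 10 d after application. Treatments were a preemergence soil spray over planted seeds or a postemergence spray on plants at the one- to two-leaf stage, 2 to 10 cm tall, all in loam soil–sand blend in the greenhouse.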

[2] = test system: barnyardgrass (Echinochloa crus-galli); test: Test A preemergence; conditions: Echinochloa crus-galli, pre-emergence, 240 h, Preemergence
In short: as §1

[3] = test system: giant foxtail (Setaria faberii); test: Test A preemergence; conditions: Setaria faberi, pre-emergence, 240 h, Preemergence
In short: as §1

[4] = test system: pigweed (Amaranthus retroflexus); test: Test A preemergence; conditions: Amaranthus retroflexus, pre-emergence, 240 h, Preemergence
[5] = test system: ragweed (common ragweed, Ambrosia elatior); test: Test A preemergence; conditions: Ambrosia artemisiifolia, pre-emergence, 240 h, Preemergence
In short: as §1

[6] = test system: ryegrass, Italian (Italian ryegrass, Lolium multiflorum); test: Test A preemergence; conditions: Lolium multiflorum, pre-emergence, 240 h, Preemergence
In short: as §1

[7] = test system: Galium (catchweed bedstraw, Galium aparine); test: Test A postemergence; conditions: Galium, post-emergence, 240 h, Postemergence, read-out: Galium plant response rating (0 to 100 scale)
In short: as §1

Kochia (Kochia scoparia) [8] = test: Test A postemergence; conditions: Bassia scoparia, post-emergence, 240 h, Postemergence, read-out: Kochia plant response rating (0 to 100 scale)
In short: as §1

[9] = test system: barnyardgrass (Echinochloa crus-galli); test: Test A postemergence; conditions: Echinochloa crus-galli, post-emergence, 240 h, Postemergence
In short: as §1

[10] = test system: blackgrass (Alopecurus myosuroides); test: Test A postemergence; conditions: Alopecurus myosuroides, post-emergence, 240 h, Postemergence, read-out: Blackgrass plant response rating (0 to 100 scale)
In short: as §1

corn (Zea mays) = test: Test A postemergence; conditions: Zea mays, post-emergence, 240 h, Postemergence, read-out: Corn plant response rating (0 to 100 scale)
In short: as §1

[11] = test system: giant foxtail (Setaria faberii); test: Test A postemergence; conditions: Setaria faberi, post-emergence, 240 h, Postemergence, read-out: Foxtail, Giant plant response rating (0 to 100 scale)
In short: as §1

[12] = test system: pigweed (Amaranthus retroflexus); test: Test A postemergence; conditions: Amaranthus retroflexus, post-emergence, 240 h, Postemergence, read-out: Pigweed plant response rating (0 to 100 scale)
In short: as §1

[13] = test system: ragweed (common ragweed, Ambrosia elatior); test: Test A postemergence; conditions: Ambrosia artemisiifolia, post-emergence, 240 h, Postemergence, read-out: Ragweed plant response rating (0 to 100 scale)
In short: as §1

[14] = test system: ryegrass, Italian (Italian ryegrass, Lolium multiflorum); test: Test A postemergence; conditions: Lolium multiflorum, post-emergence, 240 h, Postemergence, read-out: Ryegrass, Italian plant response rating (0 to 100 scale)
In short: as §1

[15] = test system: wheat (Triticum aestivum); test: Test A postemergence; conditions: Triticum aestivum, post-emergence, 240 h, Postemergence, read-out: Wheat plant response rating (0 to 100 scale)
In short: as §1

[16] = test system: barnyardgrass (Echinochloa crus-galli); test: Test B flooded paddy test; conditions: Echinochloa crus-galli, 360 h, Flood, 250 g ai/ha; visually evaluated after 13 to 15 d; read-out: Plant response rating, Barnyardgrass (0 to 100 scale where 0 is no effect and 100 is complete control)
In short: (§2)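 Rating scale 0–100 (visual, vs untreated controls) after a 13–15 d greenhouse period; application to the flood layer, 3 cm above soil and maintained; plants at 2-leaf stage when treated.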

[17] = test system: ducksalad (Heteranthera limosa); test: Test B flooded paddy test; conditions: Heteranthera limosa, 360 h, Flood, 250 g ai/ha; visually evaluated after 13 to 15 d; read-out: Plant response rating, Ducksalad (0 to 100 scale where 0 is no effect and 100 is complete control)
In short: as §2

rice (Oryra sativa) = test: Test B flooded paddy test; conditions: Oryza sativa, 360 h, Flood, 250 g ai/ha; visually evaluated after 13 to 15 d; read-out: Plant response rating, Rice (0 to 100 scale where 0 is no effect and 100 is complete control)
In short: as §2

[18] = test system: sedge, umbrella (small-flower umbrella sedge, Cyperus difformis); test: Test B flooded paddy test; conditions: Cyperus difformis, 360 h, Flood, 250 g ai/ha; visually evaluated after 13 to 15 d; read-out: Plant response rating, Sedge, Umbrella (0 to 100 scale where 0 is no effect and 100 is complete control)
In short: as §2

[19] = 125 g ai/ha, visual rating about 10 d after treatment
[20] = 31 g ai/ha, 0 is no effect, 100 is complete control

`Cc1ccc([C@H]2CN(C)C(=O)[C@@H]2C(=O)Nc2cccc(F)n2)cc1` [Compound 1375] was tested, and the pest or weed control at 31 g/ha (Kochia (Kochia scoparia) [1]; 31 g ai/ha, 0 to 100 scale where 0 is no effect and 100 is complete control, read-out: Kochia plant response rating) was 50%, the pest or weed control at 125 g/ha (Kochia (Kochia scoparia) [1]; 125 g ai/ha, 0 to 100 scale (0 no effect, 100 complete control), read-out: Plant response rating, Kochia) was 70% and the pest or weed control at 31 g/ha ([2]; 31 g ai/ha, 0 to 100 scale where 0 is no effect and 100 is complete control, read-out: Barnyardgrass plant response rating) was 90%. It also gave a pest or weed control at 125 g/ha ([2]; 125 g ai/ha, 0 to 100 scale (0 no effect, 100 complete control), read-out: Plant response rating, Barnyardgrass) of 100%, a pest or weed control at 31 g/ha ([3]; 31 g ai/ha, 0 to 100 scale where 0 is no effect and 100 is complete control, read-out: Foxtail, Giant plant response rating) of 90% and a pest or weed control at 125 g/ha ([3]; 125 g ai/ha, 0 to 100 scale (0 no effect, 100 complete control), read-out: Plant response rating, Foxtail, Giant) of 100%. For the same compound, the pest or weed control at 31 g/ha ([4]; 31 g ai/ha, 0 to 100 scale where 0 is no effect and 100 is complete control, read-out: Pigweed plant response rating) was 0%, the pest or weed control at 125 g/ha ([4]; 125 g ai/ha, 0 to 100 scale (0 no effect, 100 complete control), read-out: Plant response rating, Pigweed) was 0% and the pest or weed control at 31 g/ha ([5]; 31 g ai/ha, 0 to 100 scale where 0 is no effect and 100 is complete control, read-out: Ragweed plant response rating) was 40%. For the same compound, the pest or weed control at 125 g/ha ([5]; 125 g ai/ha, 0 to 100 scale (0 no effect, 100 complete control), read-out: Plant response rating, Ragweed) was 70%, the pest or weed control at 31 g/ha ([6]; 31 g ai/ha, 0 to 100 scale where 0 is no effect and 100 is complete control, read-out: Ryegrass, Italian plant response rating) was 0% and the pest or weed control at 125 g/ha ([6]; 125 g ai/ha, 0 to 100 scale (0 no effect, 100 complete control), read-out: Plant response rating, Ryegrass, Italian) was 70%. It also gave a pest or weed control at 125 g/ha [7, 19] of 50%, a pest or weed control at 31 g/ha [7, 20] of 20% and a pest or weed control at 125 g/ha (Kochia (Kochia scoparia) [8]; [19]) of 50%. The pest or weed control at 31 g/ha (Kochia (Kochia scoparia) [8]; [20]) was 30%, the pest or weed control at 125 g/ha ([9]; 125 g ai/ha, visual rating about 10 d after treatment, read-out: Barnyardgrass plant response rating (0 to 100 scale, 0 no effect, 100 complete control)) was 100% and the pest or weed control at 31 g/ha ([9]; 31 g ai/ha, 0 is no effect, 100 is complete control, read-out: Barnyardgrass plant response rating (0 to 100 scale)) was 70%. It also gave a pest or weed control at 125 g/ha [10, 19] of 40%, a pest or weed control at 31 g/ha [10, 20] of 0% and a plant injury at 125 g/ha (corn (Zea mays); [19]) of 30%. The plant injury at 31 g/ha (corn (Zea mays); [20]) was 0%, the pest or weed control at 125 g/ha [11, 19] was 90% and the pest or weed control at 31 g/ha [11, 20] was 70%. The pest or weed control at 125 g/ha [12, 19] was 0%, the pest or weed control at 31 g/ha [12, 20] was 0% and the pest or weed control at 125 g/ha [13, 19] was 20%. It also gave a pest or weed control at 31 g/ha [13, 20] of 0%, a pest or weed control at 125 g/ha [14, 19] of 20% and a pest or weed control at 31 g/ha [14, 20] of 0%. For the same compound, the plant injury at 125 g/ha [15, 19] was 30%, the plant injury at 31 g/ha [15, 20] was 0% and the pest or weed control at 250 g/ha [16] was 70%. It also gave a pest or weed control at 250 g/ha [17] of 95%, a pest or weed control at 250 g/ha (rice (Oryra sativa)) of 0% and a pest or weed control at 250 g/ha [18] of 0%.
